Among the data in patent US11781119B2, “Variant forms of urate oxidase and use thereof” (Horizon Therapeutics USA, Inc., priority 2005, dated 2023) are Km values, retold here.

Molecules are shown by their SMILES.

What all share (type): biochemical
Common to all, as to conditions: uric acid; sodium borate buffer, pH 9.2

Assay [1] concerns Pig-baboon chimera (PBC) uricase, recombinant, pig uricase codons 1-225 joined in-frame to codons 226-304 of baboon uricase. From the text:
Pig-baboon chimera (PBC) uricase was constructed in order to gain higher expression, stability, and activity of the recombinant gene. […] The PBC uricase cDNA consists of the pig uricase codons 1-225 joined in-frame to codons 226-304 of baboon uricase.

For assay [2], the system named is Pig-baboon chimera (PBC) uricase variant PBC-ΔNC, recombinant, N-terminal six residues and C-terminal tri-peptide removed, SEQ ID NO. 12.
Method: (§1) Activity of uricase was measured by a UV method. […] Uricase potency is expressed in activity units per mg protein (U/mg).
(§2) The absorbance change with time (ΔA292 per minute) was derived from the linear portion of the curve.
(§3) The specific activity (potency) of uricase was calculated by dividing the activity in U/ml with protein concentration in mg/ml.
The target of assay [3] is T1, Pig uricase, native, commercial preparation (Sigma) (Sus scrofa, UniProt P16164).
T1 sequence (P16164 1-304): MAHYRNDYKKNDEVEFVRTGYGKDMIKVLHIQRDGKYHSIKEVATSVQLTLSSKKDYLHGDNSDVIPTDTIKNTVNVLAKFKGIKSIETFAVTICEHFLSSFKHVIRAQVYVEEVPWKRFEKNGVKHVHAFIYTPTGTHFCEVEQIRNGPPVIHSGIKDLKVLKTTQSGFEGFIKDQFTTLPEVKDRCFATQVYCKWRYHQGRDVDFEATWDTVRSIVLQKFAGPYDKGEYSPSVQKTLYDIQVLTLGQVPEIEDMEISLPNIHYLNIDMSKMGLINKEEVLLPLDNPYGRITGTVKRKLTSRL
Method: as §1, §2, §3

Assay [4] concerns the target T2, Aspergillus flavus uricase, native, commercial preparation (Merck) (Aspergillus flavus, UniProt Q00511).
T2 sequence (Q00511 1-302): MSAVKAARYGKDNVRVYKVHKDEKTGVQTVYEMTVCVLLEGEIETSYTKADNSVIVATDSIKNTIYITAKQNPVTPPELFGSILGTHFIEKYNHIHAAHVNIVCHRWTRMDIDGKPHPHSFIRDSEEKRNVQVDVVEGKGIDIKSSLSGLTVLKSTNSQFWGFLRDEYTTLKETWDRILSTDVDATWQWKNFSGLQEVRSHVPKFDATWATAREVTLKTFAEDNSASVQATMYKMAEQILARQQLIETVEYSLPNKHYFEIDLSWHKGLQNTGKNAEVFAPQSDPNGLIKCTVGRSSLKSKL
Method: as §1, §2, §3

Regarding `O=c1[nH]c(=O)c2[nH]c(=O)[nH]c2[nH]1` [Uric Acid, uric acid], the Km (as a rule, the concentration of substrate that gives half-maximal velocity) in assay [1] was 4.87 µM; in assay [2], 4.3 µM; in assay [3], 5.85 µM; in assay [4], 23.5 µM.
